Converted amounts (≈) assume the structure as drawn. Where only a bound is given, the exact number is not on record here.

Results on one compound are retold here after publication PMC3914891, “Pentacyclic Nitrofurans with In Vivo Efficacy and Activity against Nonreplicating Mycobacterium tuberculosis” (PLoS ONE, 2014).

Common to all, as to type: cell-based
Test [1] deals with Staphylococcus aureus (NRS70). The test can be described thus: MIC, spectrum of activity: MRSA. Conditions: read-out: Minimum Inhibitory Concentration, MRSA.
Test [2] concerns Streptococcus pneumoniae (R6). Kind of test: MIC, spectrum of activity: S.pn. The settings on record: read-out: Minimum Inhibitory Concentration, S. Pn.
Another test concerns E. coli K12 ∆tolC. The settings on record: E. coli K12 ∆tolC (efflux pump deficient).
Test [3] relates to Pseudomonas aeruginosa (PA01). The test can be described thus: microbe, parasite or virus in culture.

As for `O=[N+]([O-])c1ccc(C2=NOC(c3ccc(N4CCC(Oc5ccc(OC(F)(F)F)cc5)CC4)cc3)C2)o1` (stereo not shown) [Compound 9a, 3-(5-Nitrofuran-2-yl)-5-(4-(4-(4-(trifluoromethoxy)phenoxy)piperidin-1-yl)phenyl)-4,5-dihydroisoxazole], the MIC in test [1] is 50 µg/mL (≈ 96.6 µM); in test [2], 100 µg/mL (≈ 193 µM); in test [3], > 200 µg/mL. In the test on E. coli K12 ∆tolC, the “Minimum Inhibitory Concentration, E.c. ΔtolC” value is reported as 50 µg/mL.
